From paper PMC11982291 (Communications Biology, 2025) come the findings set out here.

One assay deals with T1, XRN2 (Homo sapiens, UniProt Q9H0D6).
T1 sequence (Q9H0D6 1-790): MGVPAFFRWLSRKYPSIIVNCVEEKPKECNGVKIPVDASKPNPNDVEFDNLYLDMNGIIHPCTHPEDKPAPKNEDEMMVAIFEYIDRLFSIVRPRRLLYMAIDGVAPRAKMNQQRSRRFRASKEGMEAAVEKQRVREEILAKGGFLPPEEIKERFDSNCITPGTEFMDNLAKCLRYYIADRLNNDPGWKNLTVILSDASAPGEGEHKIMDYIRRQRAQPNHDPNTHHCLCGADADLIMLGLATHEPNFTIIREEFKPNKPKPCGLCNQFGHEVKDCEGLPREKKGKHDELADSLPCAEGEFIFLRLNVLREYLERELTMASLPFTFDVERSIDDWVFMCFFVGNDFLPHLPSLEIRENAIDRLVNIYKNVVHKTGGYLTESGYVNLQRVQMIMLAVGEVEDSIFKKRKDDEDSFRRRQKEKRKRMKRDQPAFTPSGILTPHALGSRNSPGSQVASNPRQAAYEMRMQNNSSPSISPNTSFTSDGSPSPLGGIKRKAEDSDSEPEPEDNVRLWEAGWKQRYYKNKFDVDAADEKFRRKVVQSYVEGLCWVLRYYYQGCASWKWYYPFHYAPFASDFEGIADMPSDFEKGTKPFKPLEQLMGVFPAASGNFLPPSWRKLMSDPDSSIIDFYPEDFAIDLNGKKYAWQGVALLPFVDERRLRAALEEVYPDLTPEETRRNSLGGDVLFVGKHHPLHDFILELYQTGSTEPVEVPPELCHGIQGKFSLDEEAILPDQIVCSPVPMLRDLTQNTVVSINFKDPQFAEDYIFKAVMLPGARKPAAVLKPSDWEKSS
The assay is described as follows: SPR. The format is binding.

In assay [1] the target is XRN1 (5’-3’ exoribonuclease 1) (Homo sapiens, UniProt Q8IZH2). The assay is described as follows: SPR. The format is binding.
XRN1 (5’-3’ exoribonuclease 1), sequence (Q8IZH2 1-1191): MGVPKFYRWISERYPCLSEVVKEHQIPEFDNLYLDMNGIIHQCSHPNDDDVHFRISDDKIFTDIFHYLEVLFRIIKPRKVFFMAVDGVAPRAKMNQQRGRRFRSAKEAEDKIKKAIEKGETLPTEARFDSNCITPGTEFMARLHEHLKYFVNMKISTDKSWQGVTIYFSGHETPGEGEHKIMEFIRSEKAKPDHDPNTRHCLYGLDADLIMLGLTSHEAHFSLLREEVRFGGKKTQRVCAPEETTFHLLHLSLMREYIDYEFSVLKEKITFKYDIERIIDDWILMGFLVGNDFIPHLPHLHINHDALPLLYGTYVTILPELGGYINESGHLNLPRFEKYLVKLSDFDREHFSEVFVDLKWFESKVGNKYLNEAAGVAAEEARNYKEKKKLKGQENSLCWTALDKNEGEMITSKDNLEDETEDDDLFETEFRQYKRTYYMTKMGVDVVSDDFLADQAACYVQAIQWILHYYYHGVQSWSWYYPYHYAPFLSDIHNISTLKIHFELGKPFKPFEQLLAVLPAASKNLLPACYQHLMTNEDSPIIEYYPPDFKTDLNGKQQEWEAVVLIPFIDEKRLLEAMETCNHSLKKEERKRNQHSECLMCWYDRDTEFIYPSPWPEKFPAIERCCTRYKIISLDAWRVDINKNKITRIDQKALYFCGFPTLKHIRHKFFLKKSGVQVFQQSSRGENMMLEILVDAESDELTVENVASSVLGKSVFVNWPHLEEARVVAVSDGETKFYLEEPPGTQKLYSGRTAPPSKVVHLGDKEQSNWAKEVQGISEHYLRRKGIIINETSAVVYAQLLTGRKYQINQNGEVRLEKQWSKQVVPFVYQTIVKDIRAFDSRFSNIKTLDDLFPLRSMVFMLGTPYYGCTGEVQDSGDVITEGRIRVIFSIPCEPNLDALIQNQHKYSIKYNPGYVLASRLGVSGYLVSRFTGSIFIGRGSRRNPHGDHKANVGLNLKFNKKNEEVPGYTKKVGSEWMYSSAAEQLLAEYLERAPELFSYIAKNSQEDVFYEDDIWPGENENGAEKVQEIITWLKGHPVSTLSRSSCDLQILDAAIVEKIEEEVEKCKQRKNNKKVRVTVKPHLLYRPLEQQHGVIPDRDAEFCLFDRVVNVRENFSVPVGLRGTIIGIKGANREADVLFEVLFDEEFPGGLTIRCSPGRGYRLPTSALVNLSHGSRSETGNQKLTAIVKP

Broadly, the Kd is the concentration at which binding is half-saturated. A lower Kd goes with tighter binding. Turning to `Nc1ncnc2c1ncn2[C@@H]1O[C@H](COP(=O)(O)O)[C@@H](OP(=O)(O)O)[C@H]1O` [pAp, adenosine-3’,5’-bisphosphate], the Kd at XRN2 turned out to be 14 ± 4 nM; in assay [1] it was 12 ± 1 nM.
